Data from patent US20040259906A1, “Methods for controlling the proliferation of cells” (priority 2003, published 2004).
Entries after “also recorded” stand apart in the source; their conditions may differ.

Legend:
plants = conditions: background statement; cited from earlier work
tubulin = assay: Tubulin polymerization in CRL-2632 cells (soluble/insoluble fractions, Western blot); assay type: cell-based, human; conditions: CRL-2632, 20 μM, one to six hours (FIG. 16)
Protocol: (§1) In the following examples, all referenced cell lines were purchased from ATCC. T47D cells were maintained in Dulbecco's Modified Eagle medium (DMEM) (purchased from Life Technologies, Inc.) supplemented with 10% fetal calf serum (purchased from Life Technologies, Inc.), insulin (5 μg/ml), and antibiotics. CRL-5985, CRL-2632 and Raji cells were maintained in RPMI-1640 medium supplemented with 10% fetal calf serum (purchased from Life Technologies, Inc.) and antibiotics. Western blot analysis was performed by using phospho-serine 807/811-Rb, Rb, cyclin D1, cyclin D3, cdk-2, cdk-4, bcl-2, phospho-p38, bax, bak, PARP (cell signaling technology), MCL-1 (purchased from Biosource International) and beta-tubulin antibodies (purchased from Becton-Dickenson). Proteins were separated using an 8-10% SDS-polyacrylamide gel electrophoresis (SDS-PAGE), transferred to Immobilon-P membranes and immunoblotted with antibodies using the ECL detection system.
The increase in insoluble tubulin fractions indicates polymerization of tubulin in treated cells.

[1] = tested on: T-47D (human breast ductal adenocarcinoma cells); assay: Cell viability, trypan blue exclusion assay; assay type: cell-based; conditions: eight-day period, trypan blue (FIG. 5)
Protocol: as §1
(§2) Cell lines CRL-2632 (B-cell lymphoma cells), CRL-5985 (human lung adenocarcinoma cells) and T-47D (human breast ductal adenocarcinoma cells) were exposed to 12-OPDA over an eight-day period. Cell viability and cell growth were measured versus controls.

[2] = tested on: CRL-5985 (human lung adenocarcinoma cells); assay: Cell viability, trypan blue exclusion assay; assay type: cell-based; conditions: CRL-5985, eight-day period, trypan blue (FIG. 5)
Protocol: as §1, §2

Bak = assay: Immunoblot, Bak expression in CRL-2632 cells; assay type: cell-based, human; conditions: CRL-2632, 20 μM, one to six hours (FIG. 13)
Protocol: as §1
(§3) Cells were incubated in the presence of 12-oxo-PDA (20 μM) for between one and six hours. The cells were then washed and lysed to extract total proteins. Thereafter, 30 μg extracts were resolved on 8% SDS-PAGE gel and probed with anti-PARP, anti-MCL-1, anti-bcl-2, anti-bax and anti-bak antibodies. […] Similarly, FIG. 13 illustrates the effects of 12-oxo-PDA treatment on apoptosis related proteins (i.e., Bcl-2, MCL-1, Bax and Bak proteins).

[3] = tested on: CRL-2632 human malignant diffuse large B-cell lymphoma cells; assay: Cell growth, cell number and morphology of lymphoma cells; assay type: cell-based; conditions: for cell growth arrest and cell death: CRL-2632, summary statement, dose dependent
Protocol: as §1, §2
(§4) The effects on cell growth and number for T-47D human breast cancer cells and CRL-2632 human malignant diffuse large B-cell lymphoma cells following treatment with 12-oxo-PDA and jasmonic acid (“JA”) over a four-day period were measured.
(§5) CRL-2632 diffuse large B-cell lymphoma cells (and Burkitt's lymphoma cells (“Raji”)) were treated with 12-oxo-PDA and a synthetic coronatine analog (0.5 mM).

[4] = tested on: retinoblastoma tumor suppressor protein (Rb); assay: Western blot, Rb phosphorylation in T-47D cells; assay type: cell-based, human; conditions: 20 μM
Protocol: as §1
(§6) Hyperphosphorylation of Rb is a critical process and component for regulating the cell cycle. The phosphorylation of Rb enables cells to pass through particular cell cycle checkpoints and to enter the S phase of cell cycle. […] Similarly, expression of β-tubulin and phosphorylation of p38 MAPK were unaffected.

cancer cells = assay: Observations on treated cancer cells (Oil Red O staining, removal from culture medium); assay type: cell-based
Excerpt: Rather, it appears that 12-oxo-PDA (and the related compounds) irreversibly interferes with the cellular mechanisms involved in cell growth, differentiation and the interaction between the cells with the extracellular matrix.

Bcl-2 = assay: Immunoblot, Bcl-2 expression in CRL-2632 cells; assay type: cell-based, human; conditions: CRL-2632, 20 μM, one to six hours (FIG. 13)
Protocol: as §1, §3

cyclin D1 = assay: Western blot, cyclin D1 expression in T-47D cells; assay type: cell-based, human; conditions: 20 μM, Western blot (FIG. 9)
Protocol: as §1, §6

[5] = tested on: Burkitt's lymphoma cells (Raji); assay: Growth arrest and apoptosis in Raji cells; assay type: cell-based; conditions: synthetic coronatine analog 0.5 mM (FIG. 15)
Protocol: as §1, §5

MCL-1 protein = assay: Immunoblot, MCL-1 expression in CRL-2632 cells; assay type: cell-based, human; conditions: for expression of MCL-1 protein: CRL-2632, synthetic coronatine analog 0.5 mM (FIG. 15)
Protocol: as §1, §3, §5

p27 mRNA = assay: Real-time RT-PCR in T-47D cells, p27; assay type: cell-based, human; conditions: 25 uM, 48 hours, vs ethanol (FIG. 11)
Protocol: (§7) For real-time RT-PCR experiments T-47D cells were treated with ethanol (control) or with 25 uM 12-OPDA for 48 hours. Total RNA was isolated using TRIzol reagent (Invitrogen, Carlsbad, Calif.) followed by purification on RNeasy columns (Qiagen, Palo Alto, Calif.). For quantitative real-time RT-PCR analyses, total RNA from each sample was reverse transcribed with MuLV reverse transcriptase (Applied Biosystems, Foster City, Calif.) and random hexamer primers. The SYBR Green PCR Kit (Applied Biosystems) was used for quantitative real-time RT-PCR analysis. The primers for human ubuquitin, cyclin D1, p27 and c-fos were designed using Primer Express software (Applied Biosystems). 12-oxo-PDA was purchased from Larodon Fine Chemicals AB, Sweden. Jasmonic acid was purchased from Sigma-Aldrich Co. The indanoyl amino acid conjugate of coronatine (i.e., synthetic 6-azido-1-oxo-indanoyl isoleucine) was obtained from Dr. Wilhelm Boland (Max Planck Institute, Germany).
(§8) T-47D cells were exposed to 12-oxo-PDA in an effort to determine the effect of 12-oxo-PDA on gene expression. FIGS. 10, 11 and 12 show 12-OPDA mediated regulation of cyclin D1, p27 and c-fos mRNA levels, respectively, in T-47D cells compared to ethanol treatment alone. […] Thus, it appears that 12-oxo-PDA has a direct regulatory/inhibitory effect on the cyclin D1 and Rb protein. […]

[6] = tested on: CRL-5985 human lung adenocarcinoma cells; assay: Cell growth, cell number and morphology of lung cancer cells; assay type: cell-based; conditions: for cell growth arrest and cell death: CRL-5985, summary statement, dose dependent
Protocol: as §1
CRL-5985 human lung adenocarcinoma cells were treated with 12-oxo-PDA and measured at three and eight-day intervals.
Lung cancer cells were treated with concentrations of 12-oxo-PDA ranging from 15 μM to 50 μM (versus an untreated control sample).
as §2

[7] = tested on: T-47D human breast ductal adenocarcinoma cells; assay: Cell growth and cell number of breast cancer cells; assay type: cell-based; conditions: for cell growth arrest and cell death: summary statement, dose dependent
Protocol: as §1
T-47D human breast ductal adenocarcinoma cells were treated with 12-oxo-PDA and measured at three and eight-day intervals.
as §2, §4

Bax = assay: Immunoblot, Bax expression in CRL-2632 cells; assay type: cell-based, human; conditions: CRL-2632, 20 μM, one to six hours (FIG. 13)
Protocol: as §1, §3

C-FOS mRNA = assay: Real-time RT-PCR in T-47D cells, c-fos; assay type: cell-based, human; conditions: 25 uM, 48 hours, vs ethanol (FIG. 12)
Protocol: as §7, §8

p38 MAPK = assay: Western blot, p38 MAPK phosphorylation in T-47D cells; assay type: cell-based, human; conditions: 20 μM
Protocol: as §1, §6

[8] = tested on: CRL-2632 diffuse large B-cell lymphoma cells; assay: Apoptosis / PARP cleavage immunoblot in CRL-2632 cells; assay type: cell-based, human; conditions: for growth arrest and apoptosis: CRL-2632, synthetic coronatine analog 0.5 mM (FIG. 15)
Protocol: as §1
Regulated cell apoptosis is essential for the development and maintenance of the immune system. The highly regulated anti-apoptotic MCL-1 protein appears to enhance short-term survival and functions in genotoxic cell death. […] Thus, deletion of MCL-1 during early lymphocyte differentiation increases apoptosis and arrests the development of B and T-lymphocytes. In this regard, one hallmark of apoptosis is activation of the caspases (e.g., caspase-3, caspase-6, and caspase-7). Activation of caspases leads to the cleavage of a […] PARP protein into an 89-kDa fragment.
as §3, with “proteins). […]” for “proteins).”

cyclin D1 mRNA = assay: Real-time RT-PCR in T-47D cells, cyclin D1; assay type: cell-based, human; conditions: 25 uM, 48 hours, relative to untreated (ethanol) cells (FIG. 10)
Protocol: as §7, §8

MCL-1 = MCL-1 expression in Raji cells; assay type: cell-based; conditions: synthetic coronatine analog 0.5 mM (FIG. 15)
Protocol: as §1, §5

[9] = tested on: CRL-2632 (B-cell lymphoma cells); assay: Cell viability, trypan blue exclusion assay; assay type: cell-based, human; conditions: CRL-2632, eight-day period, trypan blue (FIG. 5)
Protocol: as §1, §2

β-tubulin = assay: Western blot, β-tubulin expression in T-47D cells; assay type: cell-based, human; conditions: 20 μM
Protocol: as §1, §6

[10] = CRL-2632, four-day period (FIG. 8)

## CC[C@H]1C=C(C(=O)N[C@@]2(C(=O)O)C[C@@H]2CC)[C@H]2CCC(=O)[C@H]2C1 (stereo in doubt) [Coronatine]
plants
  activation of plant stress signaling (volatile emission, tendril coiling): can activate the stress signaling processes in plants

## CC/C=C\C[C@@H]1C(=O)C=C[C@@H]1CCCCCCCC(=O)O [Formula 12-oxo-PDA, 12-oxo-phytodienoic acid]
tubulin
  tubulin polymerization (soluble vs insoluble tubulin fractions): induces tubulin polymerization
[1]
  cell viability: significant inhibitory effect
[2]
  cell viability: significant inhibitory effect
Bak
  expression of Bak: no effect
[3]; CRL-2632, eight-day period, vs untreated samples (FIG. 6)
  decrease in total cell number: ten-fold
[3]; [10]
  total cell number over treatment period: decrease in total cell count
[3]
  cell growth arrest and cell death: arrests cell growth and induces cell death
[3]; CRL-2632, two and eight-day intervals (FIG. 4)
  morphological changes: morphological changes
[4]; Western blot
  total Rb: remained unchanged
[4]; phospho-specific Rb antibody (FIG. 9)
  Rb phosphorylation at the 807 and 811 serine residues: inhibition of the hyperphosphorylation; also recorded: dramatically inhibited
Cancer cells; Oil Red O staining
  lipid accumulation in the cytoplasm: resulted in lipid accumulation in the cytoplasm
Cancer cells; washout
  cell growth after removal of compound from culture medium: did not restore cell growth
Bcl-2
  expression of Bcl-2: no effect
Cyclin D1
  cyclin D1 expression: inhibition of cyclin D1 expression
[5]
  growth arrest and apoptosis: arrest growth and induce apoptosis
MCL-1 protein; CRL-2632, 20 μM, one to six hours (FIG. 13)
  expression of MCL-1: inhibited the expression of MCL-1
MCL-1 protein
  expression of MCL-1 protein: down-regulated expression of MCL-1
p27 mRNA
  p27 mRNA levels: no significant changes
[6]; CRL-5985, eight-day period, vs untreated samples (FIG. 6)
  decrease in cell number: five-fold
[6]
  cell growth arrest and cell death: arrests cell growth and induces cell death
[6]; CRL-5985, three and eight-day intervals (FIG. 2)
  morphological changes: ceased three-dimensional growth patterns and became more diffuse and single layered
[6]; CRL-5985, three and eight-day intervals, vs control (FIG. 2)
  cell growth: significant decrease in cell growth
[6]; lung cancer cells, 15 μM to 50 μM, eight days (FIG. 3)
  cell growth, concentration dependence: decrease in cell growth proportional to the concentration
[7]; eight-day period, vs untreated samples (FIG. 6)
  decrease in cell number: three-fold
[7]; four-day period (FIG. 7)
  total cell number over treatment period: decrease in total cell count
[7]
  cell growth arrest and cell death: arrests cell growth and induces cell death
[7]; three and eight-day intervals, vs untreated control (FIG. 1)
  cell growth and accumulation: significant decrease in cell growth and accumulation
Bax
  expression of Bax: no effect
C-FOS mRNA
  C-FOS mRNA levels: no significant changes
p38 MAPK
  phosphorylation of p38 MAPK: unaffected
[8]; CRL-2632, 20 μM, one to six hours, immunoblot
  cleavage of PARP: time-dependent cleavage of PARP
[8]
  growth arrest and apoptosis: arrest growth and induce apoptosis
Cyclin D1 mRNA
  decrease in cyclin D1 mRNA levels: greater than twenty-fold
MCL-1
  expression of MCL-1: down-regulated expression of MCL-1
[9]
  cell viability: particularly effective
β-tubulin
  expression of β-tubulin: unaffected

## CC/C=C\C[C@H]1C(=O)CC[C@@H]1CC(=O)O [jasmonic acid, Jasmonic acid, reference compound]
[3]; [10]
  growth inhibition relative to untreated control: some growth inhibition
  total cell number over treatment period: net increase in total tumor cell number
[3]
  cell growth arrest and cell death: fails to be as effective
[6]
  cell growth arrest and cell death: fails to be as effective
[7]; four-day period (FIG. 7)
  growth inhibition relative to untreated control: some growth inhibition
  total cell number over treatment period: net increase in total tumor cell number
[7]
  cell growth arrest and cell death: fails to be as effective

## CC[C@H](C)[C@H](NC(=O)c1cc(N=[N+]=[N-])cc2c1CCC2=O)C(=O)OC [synthetic coronatine]
[3]; CRL-2632 (FIG. 14)
  growth of CRL-2632 cells (growth ratio over ethanol control): inhibit growth
[5]
  growth arrest and apoptosis: arrest growth and induce apoptosis
MCL-1 protein
  expression of MCL-1 protein: down regulate the expression of the MCL-1 protein
plants
  activation of plant stress signaling (volatile emission, tendril coiling): can induce volatile emissions and/or tendril coiling
[8]
  growth arrest and apoptosis: arrest growth and induce apoptosis
MCL-1
  expression of MCL-1: down-regulated expression of MCL-1
